From paper PMC11642940, “A New Demand for Improved Selectivity and Potency of Cyanine Dyes as Antiproliferative Agents Against Colorectal Cancer Cells” (Molecules, 2024)
Where two headings read alike, the source gives them in different places.

Tests used:
[1] = MTT cell viability assay, NHDF; type: cell-based, human; conditions: human, normal human dermal fibroblasts (NHDF); 10 µM, 72 h, mean ± SD; read-out: cell viability percentage in relation to control, NHDF
Procedure: (§4) The cell lines used in this study (Caco-2, MCF-7, PC-3, and NHDF) were obtained from the American Type Culture Collection (ATCC, Manassas, VA, USA) and cultured in 75 cm^2 culture flasks at 37 °C in a humidified atmosphere with 5% CO2 in a LEEC Culture Safe Precision CO2 Incubator. PC-3 cells were grown in Roswell Park Memorial Institute (RPMI) medium supplemented with 10% of inactivated Fetal Bovine Serum (FBS) and 1% of an antibiotic mixture (Sp; 10,000 U/mL of penicillin G and 100 mg/mL of streptomycin). MCF-7 and Caco-2 cell lines were both cultured using Dulbecco’s Modified Eagle Medium (DMEM). However, the medium for MCF-7 cells was complemented with 10% of inactivated FBS and 1% of antibiotic/antimycotic mixture (Ab; 10,000 U/mL of penicillin G, 100 mg/mL of streptomycin and 25 µg/mL of amphotericin B), and the medium for Caco-2 cells was supplemented with 20% of inactivated FBS and 1% of Sp. Finally, RPMI medium supplemented with 10% FBS, 2 mM of L-glutamine, 10 mM of 4-(2-hydroxyethyl)-1-piperazineethanesulfonic acid (HEPES), 1 mM of sodium pyruvate, and 1% of Ab was used to culture NHDF cells. The culture media were renewed every two to three days until near confluence was achieved. Then, cells were detached using a solution of 0.125 g/L of trypsin and 0.02 g/L of ethylenediaminetetracetic acid (EDTA), counted by the trypan blue method, resuspended, and adequately seeded to continue the culture in 75 cm^2 flasks or for the experiments described below. All manipulations were performed in a Labculture Class II A2 Biological Safety Cabinet.

[2] = test system: normal human dermal fibroblasts (NHDF); experiment: MTT cell viability assay, NHDF; type: cell-based; conditions: Homo sapiens; NHDF, 72 h incubation, MTT, absence of light; read-out: IC50 NHDF
Procedure: as §4

[3] = test system: PC-3 prostate adenocarcinoma cells; experiment: MTT cell viability assay, PC-3; conditions: 72 h; for IC50 / viability at 10 µM: Homo sapiens; for viability at 10 µM: read-out: cell viability percentage in relation to control, PC-3; for SI PC-3 (selectivity index versus NHDF): PC-3 versus NHDF
Procedure: (§1) To evaluate the anticancer potential of monomethine cyanine dyes 1–12, a cell proliferation study was conducted using the 3-(4,5-dimethylthiazol-2-yl)-2,5-diphenyltetrazolium bromide (MTT) assay. For this preliminary evaluation, a concentration of 10 µM for each dye was tested, with the well-established chemotherapy agent 5-fluorouracil (5-FU) serving as a positive control. The assay included normal human dermal fibroblasts (NHDF) as non-tumor cells, alongside tumor cell lines from colorectal (Caco-2), prostate (PC-3), and breast (MCF-7) adenocarcinomas.
(§2) The cell lines used in this study (Caco-2, MCF-7, PC-3, and NHDF) were obtained from the American Type Culture Collection (ATCC, Manassas, VA, USA) and cultured in 75 cm^2 culture flasks at 37 °C in a humidified atmosphere with 5% CO2 in a LEEC Culture Safe Precision CO2 Incubator. PC-3 cells were grown in Roswell Park Memorial Institute (RPMI) medium supplemented with 10% of inactivated Fetal Bovine Serum (FBS) and 1% of an antibiotic mixture (Sp; 10,000 U/mL of penicillin G and […] of streptomycin). MCF-7 and Caco-2 cell lines were both cultured using Dulbecco’s Modified Eagle Medium (DMEM). However, the medium for MCF-7 cells was complemented with 10% of inactivated FBS and 1% of antibiotic/antimycotic mixture (Ab; 10,000 U/mL of penicillin G, […] of streptomycin and 25 µg/mL of amphotericin B), and the medium for Caco-2 cells was supplemented with 20% of inactivated FBS and 1% of Sp. Finally, RPMI medium supplemented with 10% FBS, 2 mM of L-glutamine, 10 mM of 4-(2-hydroxyethyl)-1-piperazineethanesulfonic acid (HEPES), 1 mM of sodium pyruvate, and 1% of Ab was used to culture NHDF cells. The culture media were renewed every two to three days until near confluence was achieved. Then, cells were detached using a solution of 0.125 g/L of trypsin and 0.02 g/L of ethylenediaminetetracetic acid (EDTA), counted by the trypan blue method, resuspended, and adequately seeded to continue the culture in 75 cm^2 flasks or for the experiments described below. All manipulations were performed in a Labculture Class II A2 Biological Safety Cabinet.
(§3) After trypsinization, cells were seeded in 96-well culture plates (100 µL; 2 × 10^4 cells/mL), and after 48 h (for adherence), they were incubated with the compounds under study in the absence of light for a duration of 72 h. Then, the medium was removed, and fresh incomplete culture medium (without FBS and Ab or Sp) and MTT solution [5 mg/mL in phosphate buffer saline (PBS)] were added to each well, followed by 4 h of incubation. After this, the medium containing MTT was removed and DMSO was added to dissolve formazan crystals. The absorbance of each well at 570 nm was determined using a microplate spectrophotometer Bio-Rad (Hercules, CA, USA) xMark. Untreated cells were considered the negative control, and 5-FU, a clinically used drug, was considered the positive control. For data analysis, the relative cell proliferation relative to the negative control cells was calculated. For each cell viability study, at least two independent assays in quadruplicate were performed. Increasing concentrations of the compounds between 0.001 and 100 μM were used to determine the IC50 values.

[4] = test system: MCF-7 breast adenocarcinoma cells; experiment: MTT cell viability assay, MCF-7; conditions: for IC50 / viability at 10 µM: Homo sapiens, MCF7, 72 h; for viability at 10 µM: read-out: cell viability percentage in relation to control, MCF-7; for SI MCF-7 (selectivity index versus NHDF): MCF-7 versus NHDF, 72 h
Procedure: as §1, §2, §3

Caco-2 cells = experiment: Apoptosis (sub-G1 events) by PI staining and flow cytometry; type: cell-based, human; conditions: 72 h
Procedure: Given that apoptosis is a common programmed mechanism regulating cell death, characterized by DNA fragmentation and an increase in sub-G1 events, we employed the method described by Riccardi and Nicolleti to assess potential apoptosis induction using flow cytometry. Cyanine dyes 5 and 10 were tested at concentrations of 1 µM and 10 µM, respectively. As positive controls for apoptosis, 600 mM sorbitol and 10 µM 5-FU were used, with untreated cells serving as the negative control. […] In contrast, dye 10 induced a slight increase in apoptosis, reaching 1.7%. […] Apoptotic bodies were more evident in cells treated with dye 5 compared to dye 10, which is further supported by the slightly higher apoptosis induction in this assay.
Apoptosis (sub-G1 events) and cell cycle distribution were evaluated by propidium iodide (PI) staining and flow cytometry, as described by Riccardi and Nicolleti. […] Untreated cells were used as the negative control, and sorbitol and 5-FU were used as positive controls. After incubation, the supernatant was collected in a centrifuge tube, cells were washed with PBS, trypsinized and wells were once again washed with PBS. This cell suspension was maintained on ice, centrifugated at 300 g for 5 min, and then the pellet was resuspended in 0.5 mL of PBS. Cells were fixed by adding 4.5 mL of 70% ethanol cooled at −20 °C on ice and were stored at −20 °C for a period ranging from one to a few days. On the day of flow cytometry analysis, PBS was added to the fixed cell tubes, followed by centrifugation and removal of the supernatant. The pellet was resuspended in 0.5 mL of PBS and 0.5 mL of DNA extraction solution (192 mL of 0.2 M sodium phosphate and 8 mL of […], pH 7.8). After incubation for 5 min, the cells were once again centrifuged, the supernatant was removed, and the pellet was resuspended in 0.3 mL of staining solution (20 µg/mL of PI and 0.2 mg/mL of DNase-free RNase in PBS). Using a FACSCalibur flow cytometer (Becton Dickinson, Franklin Lakes, NJ, USA) with a 488 nm laser line, a minimum of 20,000 events were acquired and recorded using the BD CellQuestTM Pro 4.0.2 software, and analyzed with FlowJo 10.5.3 software. To exclude debris and necrotic cells, events with a lower diameter (forward scatter; FCS) and PI fluorescence (FL3) than the hypodiploid apoptotic cells were eliminated (Figures S1 and S2). Two independent experiments were performed. A Student’s t-test was performed to evaluate the statistical significance of the results.

[5] = read-out: IC50 PC-3, PC-3, 72 h incubation, MTT
[6] = read-out: IC50 MCF-7, MCF-7, 72 h incubation, MTT

For CN1C(=Cc2oc3ccccc3[n+]2C)C=Cc2ccccc21.Cc1ccc(S(=O)(=O)[O-])cc1 [Dye 5, 3-Methyl-2-((1-methylquinolin-2(1H)-ylidene)methyl)benzo[d]oxazol-3-ium 4-methylbenzenesulfonate], the viability at 72 h, 10 µM [1] was 15.4 ± 1.82%, the IC50 [2] was 2.79 µM and the IC50 [3, 5] was 1.43 µM. The viability at 10 µM [3] was 3.47 ± 0.95%, the “SI PC-3 (selectivity index versus NHDF)” value [3] was 1.9 and the IC50 [4, 6] was 3.83 µM. For the same molecule, the viability at 10 µM [4] was 6.34 ± 1.06%, the “SI MCF-7 (selectivity index versus NHDF)” value [4] was 0.7 and the “apoptosis (sub-G1 events), % of cells” value (Caco-2 cells; Caco-2, 1 µM) was “approximately 2.3%”.
For CCN1C(=Cc2sc3cc([N+](=O)[O-])ccc3[n+]2CC)Sc2ccccc21.Cc1ccc(S(=O)(=O)[O-])cc1 [Dye 10, 3-Ethyl-2-((3-ethylbenzo[d]thiazol-2(3H)-ylidene)methyl)-6-nitrobenzo[d]thiazol-3-ium 4-methylbenzenesulfonate], the viability at 72 h, 10 µM [1] was 34.3 ± 1.99%, the IC50 [2] was 22.4 µM and the IC50 [3, 5] was 5.93 µM. For the same molecule, the viability at 10 µM [3] was 14.4 ± 1.6%, the “SI PC-3 (selectivity index versus NHDF)” value [3] was 3.8 and the IC50 [4, 6] was 13.3 µM. The viability at 10 µM [4] was 10.6 ± 6.44%, the “SI MCF-7 (selectivity index versus NHDF)” value [4] was 1.7 and the “apoptosis (sub-G1 events), % of cells” value (Caco-2 cells; Caco-2, 10 µM) was 1.7%.
O=c1[nH]cc(F)c(=O)[nH]1 [5-FU, 5-fluorouracil, reference compound] gave a viability at 72 h, 10 µM [1] of 10.5 ± 0.74%, an IC50 [2] of 4.53 µM and an IC50 ([3]; read-out: IC50 PC-3) of 2.43 µM. The viability at 10 µM [3] was 20.5 ± 2.3%, the “SI PC-3 (selectivity index versus NHDF)” value [3] was 1.9 and the IC50 ([4]; read-out: IC50 MCF-7) was 2.12 µM. The viability at 10 µM [4] was 25.3 ± 4.94%, the “SI MCF-7 (selectivity index versus NHDF)” value [4] was 2.1 and the “apoptosis (sub-G1 events), % of cells” value (Caco-2 cells; Caco-2, 10 µM) was 12.8%.
